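Following 48 hours of exposure in 96-well plates, responses at five concentrations were used to interpolate endpoints linearly. GI50 marks 50% less growth.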 The source made the active and inactive calls. No stated cut-off is given here; in the data, active = GI50 up to about 1.1 µM and inactive = higher.
Assays:
Assay in all cases: inhibition of tumour cell growth, NCI panel, 48 h
HT-29 = system: HT-29
SK-OV-3 = system: SK-OV-3
T47D = system: T47D
Hs-578T = system: Hs-578T
OVCAR-5 = system: OVCAR-5
SNB-19 = system: SNB-19
EKVX = system: EKVX
OVCAR-8 = system: OVCAR-8
MOLT-4 = system: MOLT-4
DU-145 = system: DU-145
ACHN = system: ACHN
A549 = system: A549
NCI-H226 = system: NCI-H226
M14 = system: M14
SF-268 = system: SF-268
Malme-3M = system: Malme-3M
SN12C = system: SN12C
OVCAR-3 = system: OVCAR-3
CCRF-CEM = system: CCRF-CEM
OVCAR-4 = system: OVCAR-4
CAKI-1 = system: CAKI-1
BT-549 = system: BT-549
COLO 205 = system: COLO 205
HOP-62 = system: HOP-62
KM12 = system: KM12
K562 = system: K562
RPMI-8226 = system: RPMI-8226
SNB-75 = system: SNB-75
U-251 = system: U-251
786-0 = system: 786-0
MDA-N = system: MDA-N
MDA-MB-435 = system: MDA-MB-435
HOP-92 = system: HOP-92
SR = system: SR
HL-60 = system: HL-60
A498 = system: A498
NCI-H23 = system: NCI-H23
SK-MEL-2 = system: SK-MEL-2
NCI-H522 = system: NCI-H522
SK-MEL-5 = system: SK-MEL-5
MDA-MB-231 = system: MDA-MB-231
RXF 393 = system: RXF 393
PC-3 = system: PC-3
LOX IMVI = system: LOX IMVI
IGROV-1 = system: IGROV-1
SK-MEL-28 = system: SK-MEL-28
SW-620 = system: SW-620
HCT-116 = system: HCT-116
NCI-H460 = system: NCI-H460
HCC 2998 = system: HCC 2998
UACC-257 = system: UACC-257
MCF7 = system: MCF7
UACC-62 = system: UACC-62
NCI/ADR-RES = system: NCI/ADR-RES
HCT-15 = system: HCT-15
UO-31 = system: UO-31
TK-10 = system: TK-10
SF-295 = system: SF-295
SF-539 = system: SF-539

Measured: GI50

C=CCc1cccc2cc(C(=O)Nc3ccc(C)cc3)c(=N)oc12
inactive: HT-29 > 100 µM | SK-OV-3 > 100 µM | T47D > 100 µM | Hs-578T > 100 µM | OVCAR-5 > 100 µM | SNB-19 > 100 µM | EKVX > 100 µM | OVCAR-8 > 100 µM | MOLT-4 > 100 µM | DU-145 > 100 µM | ACHN > 100 µM | A549 > 100 µM | NCI-H226 33.9 µM | M14 > 100 µM | SF-268 > 100 µM | Malme-3M > 100 µM | SN12C > 100 µM | OVCAR-3 > 100 µM | CCRF-CEM > 100 µM | OVCAR-4 > 100 µM | CAKI-1 > 100 µM | BT-549 > 100 µM | COLO 205 > 100 µM | HOP-62 > 100 µM | KM12 > 100 µM | K562 > 100 µM | RPMI-8226 > 100 µM | SNB-75 > 100 µM | U-251 > 100 µM | 786-0 > 100 µM | MDA-N > 100 µM | MDA-MB-435 > 100 µM | HOP-92 > 100 µM | SR > 100 µM | HL-60 > 100 µM | A498 > 100 µM | NCI-H23 > 100 µM | SK-MEL-2 45.2 µM | NCI-H522 > 100 µM | SK-MEL-5 > 100 µM | MDA-MB-231 > 100 µM | RXF 393 > 100 µM | PC-3 > 100 µM | LOX IMVI > 100 µM | IGROV-1 > 100 µM | SK-MEL-28 > 100 µM | SW-620 > 100 µM | HCT-116 > 100 µM | NCI-H460 > 100 µM | HCC 2998 > 100 µM | UACC-257 > 100 µM | MCF7 > 100 µM | UACC-62 > 100 µM | NCI/ADR-RES > 100 µM
> 100 µM: HCT-15

Cc1cc(=O)nc(S(=O)(=O)NC(=S)Nc2ccc(Cl)cc2)[nH]1
inactive: HT-29 > 100 µM | SK-OV-3 > 100 µM | T47D 44.9 µM | Hs-578T > 100 µM | OVCAR-5 > 100 µM | SNB-19 > 100 µM | EKVX 39.5 µM | OVCAR-8 > 100 µM | MOLT-4 10.2 µM | DU-145 > 100 µM | ACHN > 100 µM | A549 > 100 µM | UO-31 > 100 µM | TK-10 > 100 µM | NCI-H226 > 100 µM | M14 > 100 µM | SF-268 > 100 µM | Malme-3M > 100 µM | SN12C > 100 µM | OVCAR-3 > 100 µM | CCRF-CEM > 100 µM | OVCAR-4 > 100 µM | CAKI-1 77.8 µM | BT-549 > 100 µM | SF-295 > 100 µM | COLO 205 > 100 µM | HOP-62 > 100 µM | KM12 > 100 µM | RPMI-8226 34.4 µM | SNB-75 64 µM | U-251 > 100 µM | 786-0 > 100 µM | MDA-N > 100 µM | MDA-MB-435 > 100 µM | HOP-92 > 100 µM | SR 18.8 µM | HL-60 > 100 µM | A498 > 100 µM | NCI-H23 > 100 µM | SK-MEL-2 > 100 µM | NCI-H522 27.1 µM | SK-MEL-5 > 100 µM | MDA-MB-231 > 100 µM | RXF 393 2.74 µM | PC-3 > 100 µM | IGROV-1 > 100 µM | SK-MEL-28 > 100 µM | SW-620 > 100 µM | HCT-116 > 100 µM | NCI-H460 > 100 µM | HCC 2998 > 100 µM | SF-539 > 100 µM | UACC-257 > 100 µM | MCF7 > 100 µM | UACC-62 > 100 µM | NCI/ADR-RES > 100 µM
> 100 µM: HCT-15

CC(=O)OCC(=O)O[C@@H]1[C@H]2[C@@H](OC(=O)c3ccccc3)[C@@H](C)C[C@]2(O)[C@H](OC(C)=O)[C@@]2(C)C[C@]1(OC(C)=O)C[C@H]1C(=O)C(C)(C)[C@@H](OC(C)=O)[C@@H]12
active: UO-31 0.912 µM | NCI-H460 0.991 µM
inactive: HT-29 9.42 µM | SK-OV-3 > 25 µM | T47D > 25 µM | Hs-578T 9.55 µM | OVCAR-5 10 µM | SNB-19 > 25 µM | EKVX 24.8 µM | OVCAR-8 > 25 µM | MOLT-4 > 5.14 µM | DU-145 > 25 µM | ACHN > 25 µM | A549 3.66 µM | TK-10 > 25 µM | NCI-H226 > 25 µM | M14 > 12.1 µM | SF-268 > 25 µM | Malme-3M > 25 µM | SN12C > 25 µM | OVCAR-3 > 25 µM | OVCAR-4 > 20.9 µM | CAKI-1 17.1 µM | BT-549 > 25 µM | SF-295 6.01 µM | COLO 205 4.75 µM | HOP-62 5.78 µM | KM12 > 25 µM | K562 1.48 µM | RPMI-8226 17.9 µM | SNB-75 7.71 µM | U-251 > 25 µM | 786-0 > 20 µM | MDA-N 6.98 µM | MDA-MB-435 10.8 µM | HOP-92 > 16.3 µM | SR > 25 µM | HL-60 2.77 µM | A498 13.4 µM | NCI-H23 > 25 µM | SK-MEL-2 > 25 µM | NCI-H522 > 25 µM | SK-MEL-5 9.46 µM | MDA-MB-231 > 25 µM | RXF 393 > 25 µM | PC-3 22.4 µM | LOX IMVI > 25 µM | IGROV-1 > 25 µM | SK-MEL-28 > 25 µM | SW-620 21.2 µM | HCT-116 > 25 µM | HCC 2998 9.38 µM | SF-539 > 25 µM | UACC-257 > 25 µM | MCF7 > 25 µM | UACC-62 > 25 µM | NCI/ADR-RES > 25 µM
> 25 µM: HCT-15
